Data reported in PubChem BioAssay AID1259407 (Chemical Carcinogenesis Research Information System (CCRIS), 2018).
Activity calls are given as the source filed them. How the calls were made is not given here.

Test system: CCRIS mutagenicity, Ames/micronucleus/aberration tests
Assay: CCRIS mutagenicity studies
[1] = Test System: AMES SALMONELLA TYPHIMURIUM, Strain/Indicator: TA98, Metabolic Activation: NONE, Method: STANDARD PLATE
[2] = Test System: AMES SALMONELLA TYPHIMURIUM, Strain/Indicator: TA100, Metabolic Activation: NONE, Method: STANDARD PLATE
[3] = Test System: AMES SALMONELLA TYPHIMURIUM, Strain/Indicator: TA1535, Metabolic Activation: NONE, Method: STANDARD PLATE
[4] = Test System: AMES SALMONELLA TYPHIMURIUM, Strain/Indicator: TA1537, Metabolic Activation: NONE, Method: STANDARD PLATE

For `CCc1ccc(NO)cc1`, the mutagenic call (Test System: E. COLI, Strain/Indicator: WP2 UVRA, Metabolic Activation: NONE, Method: FLUCTUATION TEST) was “active; positive”.

In the case of `CNc1nc2c3cccnc3ccc2n1C`, the mutagenic call (Test System: AMES SALMONELLA TYPHIMURIUM, Strain/Indicator: TA98, Metabolic Activation: RAT, LIVER, S-9, AROCLOR 1254, Method: PREINCUBATION) is reported as “active; positive” and the mutagenic call (Test System: AMES SALMONELLA TYPHIMURIUM, Strain/Indicator: TA100, Metabolic Activation: RAT, LIVER, S-9, AROCLOR 1254, Method: PREINCUBATION) is reported as “active; positive”.

With `Cl/C=C/CCl` the mutagenic call (End Point: IN VITRO CHROMOSOMAL ABERRATIONS, Test System: CHL CELLS, Metabolic Activation: RAT, LIVER, S-9, SODIUM PHENOBARBITAL AND 5,6-BENZOFLAVONE) was “active; positive (structural and ploidy changes)”, the mutagenic call (End Point: IN VITRO CHROMOSOMAL ABERRATIONS, Test System: CHO CELLS, Metabolic Activation: NONE) was “inactive; negative; previous trial yielded positive result at 49.1 ug/ml but no dose-respo” and the mutagenic call (End Point: IN VITRO CHROMOSOMAL ABERRATIONS, Test System: CHO CELLS, Metabolic Activation: RAT, LIVER, S-9, AROCLOR 1254) was “inactive; negative”. The mutagenic call (Test System: AMES SALMONELLA TYPHIMURIUM, Strain/Indicator: RSJ100, Metabolic Activation: NONE, Method: VAPOR PHASE) was “active; positive”, the mutagenic call (Test System: AMES SALMONELLA TYPHIMURIUM, Strain/Indicator: TA98, Metabolic Activation: HAMSTER, LIVER, S-9, AROCLOR 1254, Method: STANDARD PLATE) was “active; positive” and the mutagenic call (Test System: AMES SALMONELLA TYPHIMURIUM, Strain/Indicator: TA98, Metabolic Activation: NONE, Method: DESICCATOR) was “active; positive”. For the same compound, the mutagenic call [1] was “active; positive”, the mutagenic call (Test System: AMES SALMONELLA TYPHIMURIUM, Strain/Indicator: TA98, Metabolic Activation: RAT, LIVER, S-9, AROCLOR 1254, Method: DESICCATOR) was “active; positive” and the mutagenic call (Test System: AMES SALMONELLA TYPHIMURIUM, Strain/Indicator: TA98, Metabolic Activation: RAT, LIVER, S-9, AROCLOR 1254, Method: STANDARD PLATE) was “active; positive”. The mutagenic call (Test System: AMES SALMONELLA TYPHIMURIUM, Strain/Indicator: TA100, Metabolic Activation: HAMSTER, LIVER, S-9, AROCLOR 1254, Method: STANDARD PLATE) was “active; positive”, the mutagenic call (Test System: AMES SALMONELLA TYPHIMURIUM, Strain/Indicator: TA100, Metabolic Activation: NONE, Method: DESICCATOR) was “active; positive” and the mutagenic call [2] was “active; positive”. For the same compound, the mutagenic call (Test System: AMES SALMONELLA TYPHIMURIUM, Strain/Indicator: TA100, Metabolic Activation: RAT, LIVER, S-9, AROCLOR 1254, Method: DESICCATOR) was “active; positive”, the mutagenic call (Test System: AMES SALMONELLA TYPHIMURIUM, Strain/Indicator: TA100, Metabolic Activation: RAT, LIVER, S-9, AROCLOR 1254, Method: STANDARD PLATE) was “active; positive” and the mutagenic call (Test System: AMES SALMONELLA TYPHIMURIUM, Strain/Indicator: TA1535, Metabolic Activation: HAMSTER, LIVER, S-9, AROCLOR 1254, Method: STANDARD PLATE) was “active; positive”. The mutagenic call (Test System: AMES SALMONELLA TYPHIMURIUM, Strain/Indicator: TA1535, Metabolic Activation: NONE, Method: DESICCATOR) was “active; positive”, the mutagenic call [3] was “active; positive” and the mutagenic call (Test System: AMES SALMONELLA TYPHIMURIUM, Strain/Indicator: TA1535, Metabolic Activation: RAT, LIVER, S-9, AROCLOR 1254, Method: DESICCATOR) was “active; positive”. The mutagenic call (Test System: AMES SALMONELLA TYPHIMURIUM, Strain/Indicator: TA1535, Metabolic Activation: RAT, LIVER, S-9, AROCLOR 1254, Method: STANDARD PLATE) was “active; positive”, the mutagenic call (Test System: AMES SALMONELLA TYPHIMURIUM, Strain/Indicator: TA1537, Metabolic Activation: HAMSTER, LIVER, S-9, AROCLOR 1254, Method: STANDARD PLATE) was “inactive; negative” and the mutagenic call [4] was “inactive; negative”. For the same compound, the mutagenic call (Test System: AMES SALMONELLA TYPHIMURIUM, Strain/Indicator: TA1537, Metabolic Activation: RAT, LIVER, S-9, AROCLOR 1254, Method: STANDARD PLATE) was “inactive; negative”, the mutagenic call (Test System: AMES SALMONELLA TYPHIMURIUM, Strain/Indicator: TPT100, Metabolic Activation: NONE, Method: VAPOR PHASE) was “active; positive” and the mutagenic call (Test System: UDS HUMAN HEPATOCYTES, Strain/Indicator: THY INCORP, Metabolic Activation: NONE, Method: AUTORADIOGRAPHY) was “active; positive”. The mutagenic call (Test System: UDS RAT HEPATOCYTES, Strain/Indicator: THY INCORP, Metabolic Activation: NONE, Method: AUTORADIOGRAPHY) was “active; positive” and the mutagenic call (Test System: UDS RAT HEPATOCYTES, Strain/Indicator: THY INCORP, Metabolic Activation: NONE, Method: IN VIVO-IN VITRO) was “inactive; negative”.

With `CCN(C)C(=O)Oc1ccc2c(c1)C1(C)CCN(C)C1N2C` (stereo unspecified) the mutagenic call (Test System: AMES SALMONELLA TYPHIMURIUM, Strain/Indicator: TA97, Metabolic Activation: NONE, Method: STANDARD PLATE) was “inactive; negative”, the mutagenic call (Test System: AMES SALMONELLA TYPHIMURIUM, Strain/Indicator: TA97, Metabolic Activation: S-9, Method: STANDARD PLATE) was “inactive; negative” and the mutagenic call [1] was “inactive; negative”. For the same compound, the mutagenic call (Test System: AMES SALMONELLA TYPHIMURIUM, Strain/Indicator: TA98, Metabolic Activation: S-9, Method: STANDARD PLATE) was “inactive; negative”, the mutagenic call [2] was “inactive; negative” and the mutagenic call (Test System: AMES SALMONELLA TYPHIMURIUM, Strain/Indicator: TA100, Metabolic Activation: S-9, Method: STANDARD PLATE) was “inactive; negative”. For the same compound, the mutagenic call (Test System: AMES SALMONELLA TYPHIMURIUM, Strain/Indicator: TA104, Metabolic Activation: NONE, Method: STANDARD PLATE) was “inactive; negative”, the mutagenic call (Test System: AMES SALMONELLA TYPHIMURIUM, Strain/Indicator: TA104, Metabolic Activation: S-9, Method: STANDARD PLATE) was “inactive; negative” and the mutagenic call [3] was “inactive; negative”. The mutagenic call (Test System: AMES SALMONELLA TYPHIMURIUM, Strain/Indicator: TA1535, Metabolic Activation: S-9, Method: STANDARD PLATE) was “inactive; negative”, the mutagenic call [4] was “inactive; negative” and the mutagenic call (Test System: AMES SALMONELLA TYPHIMURIUM, Strain/Indicator: TA1537, Metabolic Activation: S-9, Method: STANDARD PLATE) was “inactive; negative”. For the same compound, the mutagenic call (Test System: AMES SALMONELLA TYPHIMURIUM, Strain/Indicator: TA1538, Metabolic Activation: NONE, Method: STANDARD PLATE) was “inactive; negative” and the mutagenic call (Test System: AMES SALMONELLA TYPHIMURIUM, Strain/Indicator: TA1538, Metabolic Activation: S-9, Method: STANDARD PLATE) was “inactive; negative”.

With `C=C1C[C@@]23CC[C@H]4[C@@](C)(CCC[C@@]4(C)C(=O)O[C@@H]4O[C@H](CO)[C@@H](O)[C@H](O)[C@H]4O)[C@@H]2CC[C@]1(O[C@@H]1O[C@H](CO)[C@@H](O)[C@H](O[C@@H]2O[C@H](CO)[C@@H](O)[C@H](O)[C@H]2O)[C@H]1O[C@@H]1O[C@H](CO)[C@@H](O)[C@H](O)[C@H]1O)C3` the mutagenic call (Test System: AMES SALMONELLA TYPHIMURIUM, Strain/Indicator: TM677, Metabolic Activation: RAT, LIVER, S-9, AROCLOR 1254, Method: PREINCUBATION) was “inactive; negative”.

With `O=C1CCCN1c1ncc([N+](=O)[O-])s1` the mutagenic call [1] was “active; positive” and the mutagenic call [2] was “inactive; negative”.
